Source: patent US20140081017A1, “Histone Deacetylase Inhibitors for Enhancing Activity of Antifungal Agents” (METHYLGENE INC., priority 2012, published 2014)
Values after ≈ are worked out from the molar mass of the structure shown. Read-outs that look alike come from different tables or passages of the source.

Experiments:
Candida albicans = experiment: Minimal Inhibitory Concentration (MIC) assay, broth microdilution per CLSI; type: cell-based; details: Candida albicans, read-out: Minimum Inhibitory Concentrations against Yeast Isolates, Candida albicans;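 further: two read times 24 hr and 48 hr of incubation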
How it was run: (§1)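 Steps: overnight yeast growth on Sabouraud dextrose agar at 35° C; 0.5 McFarland saline suspension diluted 1:100 in RPMI (0.165 M MOPS, pH 7.0); inoculation into twofold compound dilutions; incubation 24-48 hr at 35° C; MIC scored as lowest concentration without visible growth.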

Candida glabrata = experiment: as above; type: cell-based; details: Nakaseomyces glabratus, read-out: Minimum Inhibitory Concentrations against Yeast Isolates, Candida glabrata;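 further: two read times 24 hr and 48 hr of incubation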
How it was run: as §1

Candida parapsilosis = experiment: as above; type: cell-based; details: Lodderomyces parapsilosis, read-out: Minimum Inhibitory Concentrations against Yeast Isolates, Candida parapsilosis;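 further: two read times 24 hr and 48 hr of incubation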
How it was run: as §1

C. glabrata = experiment: Checkerboard FIC assay in combination with fluconazole (MIC alone and in combination, FICI); type: cell-based, Candida glabrata; details: for FICI of combination resulting in fluconazole MIC of: 2 ug/mL / FICI of combination resulting in fluconazole MIC of: 4 ug/mL / FICI of combination resulting in fluconazole MIC of: 8 ug/mL: FICI calculated using a fluconazole MIC of 16 μg/mL; for FICI of combination resulting in fluconazole MIC of: 2 ug/mL (value in parenthesis) / FICI of combination resulting in fluconazole MIC of: 4 ug/mL (value in parenthesis) / FICI of combination resulting in fluconazole MIC of: 8 ug/mL (value in parenthesis): FICI using a fluconazole MIC of 128 μg/mL; for MIC: Nakaseomyces glabratus; for Multiple of compound MIC to synergize fluconazole MIC to 2 ug/mL / Multiple of compound MIC to synergize fluconazole MIC to 4 ug/mL / Multiple of compound MIC to synergize fluconazole MIC to 8 ug/mL: concentration in combination as multiple of the compound's MIC alone; for Multiple of compound MIC to synergize fluconazole MIC to 2 ug/mL: fluconazole MIC 2 ug/mL; for Multiple of compound MIC to synergize fluconazole MIC to 4 ug/mL: fluconazole MIC 4 ug/mL; for Multiple of compound MIC to synergize fluconazole MIC to 8 ug/mL: fluconazole MIC 8 ug/mL; for Concentration of Methylgene compound to synergize fluconazole MIC to 2 ug/mL / Concentration of Methylgene compound to synergize fluconazole MIC to 4 ug/mL / Concentration of Methylgene compound to synergize fluconazole MIC to 8 ug/mL: in combination with fluconazole; for Concentration of Methylgene compound to synergize fluconazole MIC to 2 ug/mL: fluconazole MIC lowered to 2 ug/mL; for Concentration of Methylgene compound to synergize fluconazole MIC to 4 ug/mL: fluconazole MIC lowered to 4 ug/mL; for Concentration of Methylgene compound to synergize fluconazole MIC to 8 ug/mL: fluconazole MIC lowered to 8 ug/mL
How it was run: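 A fluconazole synergy checkerboard was run against C. glabrata in MOPS-buffered RPMI (pH 7.0) for about 48 h at 35 °C. Each agent was diluted 2-fold, with one row and one column holding each agent alone for MIC determination. FICI was calculated from these MICs, using a 0.5 McFarland inoculum diluted 1:100 per CLSI.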

[1] = 24 hr reading (first value of cell 24 hr/48 hr)
[2] = 48 hr reading (second value of cell 24 hr/48 hr)
[3] = MIC of the example compound alone against C. glabrata in the checkerboard assay, approximately 48 hr, read-out: Methylgene MIC
[4] = test compound alone, C. glabrata, approx. 48 hr at 35° C., read-out: Compound MIC

SMILES | MIC (Candida albicans; [1]) [µg/mL] | MIC (Candida albicans; [2]) [µg/mL] | MIC (Candida glabrata; [1]) [µg/mL] | MIC (Candida glabrata; [2]) [µg/mL] | MIC (Candida parapsilosis; [1]) [µg/mL] | MIC (Candida parapsilosis; [2]) [µg/mL] | FICI of combination resulting in fluconazole MIC of: 2 ug/mL (C. glabrata; C. glabrata) | FICI of combination resulting in fluconazole MIC of: 4 ug/mL (C. glabrata; C. glabrata) | FICI of combination resulting in fluconazole MIC of: 8 ug/mL (C. glabrata; C. glabrata) | FICI of combination resulting in fluconazole MIC of: 2 ug/mL (value in parenthesis) (C. glabrata; C. glabrata) | FICI of combination resulting in fluconazole MIC of: 4 ug/mL (value in parenthesis) (C. glabrata; C. glabrata) | FICI of combination resulting in fluconazole MIC of: 8 ug/mL (value in parenthesis) (C. glabrata; C. glabrata) | MIC (C. glabrata; [3]) [µg/mL] | MIC (C. glabrata; [4]) [µg/mL] | Multiple of compound MIC to synergize fluconazole MIC to 2 ug/mL (C. glabrata) | Multiple of compound MIC to synergize fluconazole MIC to 4 ug/mL (C. glabrata) | Multiple of compound MIC to synergize fluconazole MIC to 8 ug/mL (C. glabrata) | Concentration of Methylgene compound to synergize fluconazole MIC to 2 ug/mL (C. glabrata; C. glabrata) [µg/mL] | Concentration of Methylgene compound to synergize fluconazole MIC to 4 ug/mL (C. glabrata; C. glabrata) [µg/mL] | Concentration of Methylgene compound to synergize fluconazole MIC to 8 ug/mL (C. glabrata; C. glabrata) [µg/mL]
Nc1cccc(CCCCc2ccc(CC(=O)NO)cc2)c1 [Example 32, 2-(4-(4-(3-aminophenyl)butyl)phenyl)-N-hydroxyacetamide] | 32 (≈ 107 µM) | 32 (≈ 107 µM) | > 32 | > 32 | 32 (≈ 107 µM) | 32 (≈ 107 µM) | 0.625 | 0.500 | 0.625 | 0.516 | 0.281 | 0.188 | 2 | 2 | (½x) | (¼x) | (⅛x) | 1 | 0.5 | 0.25
Nc1ccccc1CCCCc1ccc(CC(=O)NO)cc1 [Example 33, 2-(4-(4-(2-aminophenyl)butyl)phenyl)-N-hydroxyacetamide] | 8 (≈ 26.8 µM) | 16 (≈ 53.6 µM) | 4 (≈ 13.4 µM) | 8 (≈ 26.8 µM) | 8 (≈ 26.8 µM) | 16 (≈ 53.6 µM) | 0.313 | 0.375 | 0.500 | 0.266 | 0.281 | 0.313 | 8 | 8 | (¼x) | (¼x) | (¼x) | 2 | 2 | 2
COCCOCCOCCOCCC(=O)Nc1ccc(CCCCc2ccc(CC(=O)NO)cc2)cc1 [Example 37, N-(4-(4-(4-(2-(hydroxyamino)-2-oxoethyl)phenyl)butyl)phenyl)-2,5,8,11-tetraoxatetradecan-14-amide] | > 64 | > 64 | 64 (≈ 124 µM) | > 64 | > 64 | > 64 | 0.375 | 0.500 | 0.625 | 0.266 | 0.281 | 0.188 | 4 | 4 | (¼x) | (¼x) | (⅛x) | 1 | 1 | 0.5

Now from value to molecule:

MIC (Candida albicans; [1]) [µg/mL] | MIC (Candida albicans; [2]) [µg/mL] | MIC (Candida glabrata; [1]) [µg/mL] | MIC (Candida glabrata; [2]) [µg/mL] | MIC (Candida parapsilosis; [1]) [µg/mL] | MIC (Candida parapsilosis; [2]) [µg/mL] | FICI of combination resulting in fluconazole MIC of: 2 ug/mL (C. glabrata; C. glabrata) | FICI of combination resulting in fluconazole MIC of: 4 ug/mL (C. glabrata; C. glabrata) | FICI of combination resulting in fluconazole MIC of: 8 ug/mL (C. glabrata; C. glabrata) | FICI of combination resulting in fluconazole MIC of: 2 ug/mL (value in parenthesis) (C. glabrata; C. glabrata) | FICI of combination resulting in fluconazole MIC of: 4 ug/mL (value in parenthesis) (C. glabrata; C. glabrata) | FICI of combination resulting in fluconazole MIC of: 8 ug/mL (value in parenthesis) (C. glabrata; C. glabrata) | MIC (C. glabrata; [3]) [µg/mL] | MIC (C. glabrata; [4]) [µg/mL] | Multiple of compound MIC to synergize fluconazole MIC to 2 ug/mL (C. glabrata) | Multiple of compound MIC to synergize fluconazole MIC to 4 ug/mL (C. glabrata) | Multiple of compound MIC to synergize fluconazole MIC to 8 ug/mL (C. glabrata) | Concentration of Methylgene compound to synergize fluconazole MIC to 2 ug/mL (C. glabrata; C. glabrata) [µg/mL] | Concentration of Methylgene compound to synergize fluconazole MIC to 4 ug/mL (C. glabrata; C. glabrata) [µg/mL] | Concentration of Methylgene compound to synergize fluconazole MIC to 8 ug/mL (C. glabrata; C. glabrata) [µg/mL] | SMILES
> 64 | > 64 | > 64 | > 64 | > 64 | > 64 | 0.375 | 0.375 | 0.625 | 0.266 | 0.156 | 0.188 | 8 | 8 | (¼x) | (⅛x) | (⅛x) | 2 | 1 | 1 | CN1CCC(C(=O)Nc2ccc(CCCCc3ccc(CC(=O)NO)cc3)cc2)CC1.Cl [Example 34, N-(4-(4-(4-(2-(hydroxyamino)-2-oxoethyl)phenyl)butyl)phenyl)-1-methylpiperidine-4-carboxamide hydrochloride]
64 (≈ 140 µM) | 64 (≈ 140 µM) | 64 (≈ 140 µM) | > 64 | 64 (≈ 140 µM) | 64 (≈ 140 µM) | 0.375 | 0.500 | 0.625 | 0.266 | 0.281 | 0.188 | 4 | 4 | (¼x) | (¼x) | (⅛x) | 1 | 1 | 0.5 | COCCOCCOCC(=O)Nc1ccc(CCCCc2ccc(CC(=O)NO)cc2)cc1 [Example 35, N-hydroxy-2-(4-(4-(4-(2-(2-(2-methoxyethoxy)ethoxy)acetamido)phenyl)butyl)phenyl)acetamide]
> 8 | > 8 | > 8 | > 8 | > 8 | > 8 | 0.375 | 0.500 | 0.625 | 0.266 | 0.281 | 0.188 | 16 | 16 | (¼x) | (¼x) | (⅛x) | 4 | 4 | 2 | O=C(Cc1ccc(CCCCc2ccc(NC(=O)CO)cc2)cc1)NO [Example 36, N-hydroxy-2-(4-(4-(4-(2-hydroxyacetamido)phenyl)butyl)phenyl)acetamide]
> 64 | > 64 | 16 (≈ 36.1 µM) | 16 (≈ 36.1 µM) | > 64 | > 64 | 0.563 | 0.375 | 0.375 | 0.516 | 0.281 | 0.188 | 16 | 16 | (½x) | (¼x) | (⅛x) | 8 | 4 | 2 | CN(C)CCSCC(=O)Nc1ccc(CCCCc2ccc(CC(=O)NO)cc2)cc1 [Example 38, 2-(2-(dimethylamino)ethylthio)-N-(4-(4-(4-(2-(hydroxyamino)-2-oxoethyl)phenyl)butyl)phenyl)acetamide]
